From ChEMBL document CHEMBL4028808, “Design and synthesis of selective CDK8/19 dual inhibitors: Discovery of 4,5-dihydrothieno[3',4':3,4]benzo[1,2-d]isothiazole derivatives” (Bioorg Med Chem, 2017)
In brackets after ≈: the same amount, converted by molar mass. One block for each molecule: values may come before it. Activity calls are given as the source filed them. The calls are words filed in the database; no cut-off is given here.

What was measured:
CDK8/Cyclin C [1] = molecular target: T1, CDK8/Cyclin C (Homo sapiens, UniProt P49336); test: Inhibition of full length recombinant human His-tagged CDK8/Cyclin C expressed in baculovirus expression system using Ulight-GS peptide as substrate measured after 30 mins by TR-FRET based LANCE assay
CDK8/Cyclin C [2] = molecular target: T1, CDK8/Cyclin C; test: Inhibition of full length recombinant human His-tagged CDK8/Cyclin C expressed in baculovirus expression system by LanthaScreen assay
[3] = molecular target: T2, Cyclin-dependent kinase 8 (Homo sapiens, UniProt P49336); test: Inhibition of CDK8 induced beta-catenin transcriptional activity in human HCT116 cells by luciferase reporter gene assay; assay type: cell-based
[4] = molecular target: T2, Cyclin-dependent kinase 8; test: Inhibition of CDK8 in human SW480 cells assessed as decrease in STAT1 phosphorylation at Ser727 after 2 hrs by Western blot method
[5] = molecular target: CDK8/Cyclin C (Homo sapiens) (UniProt P49336+P24863); details: 1 uM
Description: Inhibition of kinase tracer-236 binding to GST-tagged CDK8/CyclinC (unknown origin) at 1 uM after 60 mins by TR-FRET assay relative to control

[6] = molecular target: Vascular endothelial growth factor receptor 2 (Homo sapiens) (UniProt P35968); test: Inhibition of VEGFR2 (unknown origin) at <1 uM using biotinylated poly[Glu:Tyr] (4:1) as substrate pretreated for 5 mins followed by substrate addition measured after 10 mins by Alphascreen assay
[7] = molecular target: Tyrosine-protein kinase JAK1 (Homo sapiens) (UniProt P23458); test: Inhibition of JAK1 (unknown origin) at <1 uM using biotinylated poly[Glu:Tyr] (4:1) as substrate pretreated for 5 mins followed by substrate addition measured after 10 mins by Alphascreen assay
[8] = molecular target: Aurora kinase B (Homo sapiens) (UniProt Q96GD4); test: Inhibition of Aurora B (unknown origin) at <1 uM using aurora peptide as substrate preincubated for 5 mins followed by substrate addition measured after 60 mins in presence of [gamma33P]ATP by scintillation counter method
[9] = molecular target: Protein kinase C theta type (Homo sapiens) (UniProt Q04759); test: Inhibition of PKCtheta (unknown origin) at 1 uM using MBP as substrate preincubated for 5 mins followed by substrate addition measured after 60 mins in presence of [gamma33P]ATP by scintillation counter method relative to control
[10] = molecular target: High affinity nerve growth factor receptor (Homo sapiens) (UniProt P04629); test: Inhibition of TrkA (unknown origin) at <1 uM
[11] = molecular target: Serine/threonine-protein kinase Chk1 (Homo sapiens) (UniProt O14757); test: Inhibition of CHK1 (unknown origin) at <1 uM using CHKtide as substrate preincubated for 5 mins followed by substrate addition measured after 10 mins in presence of [gamma33P]ATP by scintillation counter method
[12] = molecular target: MAP kinase-activated protein kinase 2 (Homo sapiens) (UniProt P49137); test: Inhibition of MAPKAPK2 (unknown origin) at <1 uM using KKLNRTLSVA-NH2 as substrate preincubated for 5 mins followed by substrate addition measured after 10 mins in presence of [gamma33P]ATP by scintillation counter method
Homo sapiens = species on record: Homo sapiens; test: Inhibition of PKA (unknown origin) at 1 uM using PKA peptide as substrate preincubated for 5 mins followed by substrate addition measured after 10 mins in presence of [gamma33P]ATP by scintillation counter method relative to control
[13] = molecular target: Mitogen-activated protein kinase kinase kinase 5 (Homo sapiens) (UniProt Q99683); test: Inhibition of ASK1 (unknown origin) at 1 uM using MBP as substrate preincubated for 5 mins followed by substrate addition measured after 60 mins in presence of [gamma33P]ATP by scintillation counter method relative to control
[14] = molecular target: Hepatocyte growth factor receptor (Homo sapiens) (UniProt P08581); test: Inhibition of cMET (unknown origin) at <1 uM
[15] = molecular target: Mitogen-activated protein kinase 14 (Homo sapiens) (UniProt Q16539); test: Inhibition of p38alpha (unknown origin) at <1 uM using MBP as substrate preincubated for 5 mins followed by substrate addition measured after 60 mins in presence of [gamma32P]ATP by scintillation counter method
CDK8/Cyclin C [16] = molecular target: T1, CDK8/Cyclin C; test: Inhibition of kinase tracer-236 binding to GST-tagged CDK8/CyclinC (unknown origin) after 60 mins by TR-FRET assay; assay type: protein-complex assay
[17] = molecular target: Ephrin type-A receptor 5 (Homo sapiens) (UniProt P54756); test: Inhibition of EphA5 (unknown origin) at <1 uM using biotinylated poly[Glu:Tyr] (4:1) as substrate pretreated for 5 mins followed by substrate addition measured after 10 mins by Alphascreen assay
[18] = molecular target: Rho-associated protein kinase 1 (Homo sapiens) (UniProt Q13464); test: Inhibition of ROCK1 (unknown origin) at 1 uM using long S6 peptide as substrate pretreated for 5 mins followed by substrate addition measured after 10 mins in presence of [gamma33P]ATP by scintillation counting method relative to control
[19] = molecular target: Proto-oncogene tyrosine-protein kinase Src (Homo sapiens) (UniProt P12931); test: Inhibition of SRC (unknown origin) at <1 uM using biotinylated poly[Glu:Tyr] (4:1) as substrate pretreated for 5 mins followed by substrate addition measured after 10 mins by Alphascreen assay
[20] = molecular target: Dual specificity mitogen-activated protein kinase kinase 1 (Homo sapiens) (UniProt Q02750); test: Inhibition of MEK1 (unknown origin) at <1 uM using GST-ERK1 as substrate preincubated for 5 mins followed by substrate addition measured after 20 mins in presence of [gamma33P]ATP by scintillation counter method
[21] = molecular target: T3, Cyclin-dependent kinase 9 (Homo sapiens, UniProt P50750); test: Inhibition of CDK9 (unknown origin)
[22] = molecular target: Insulin receptor (Homo sapiens) (UniProt P06213); test: Inhibition of IRK (unknown origin) at <1 uM using biotinylated poly[Glu:Tyr] (4:1) as substrate pretreated for 5 mins followed by substrate addition measured after 60 mins by Alphascreen assay
[23] = molecular target: Casein kinase I isoform delta (Homo sapiens) (UniProt P48730); test: Inhibition of CK1delta (unknown origin) at 1 uM using CK1tide as substrate preincubated for 5 mins followed by substrate addition measured after 20 mins in presence of [gamma33P]ATP by scintillation counter method relative to control
[24] = molecular target: CDC7/DBF4 (Cell division cycle 7-related protein kinase/Activator of S phase kinase) (Homo sapiens) (UniProt Q9UBU7+O00311); test: Inhibition of CDC7/Dbf4 (unknown origin) at 1 uM using His-tagged MCM2 as substrate preincubated for 5 mins followed by substrate addition measured after 60 mins in presence of [gamma33P]ATP by scintillation counter method relative to control; assay type: protein-complex assay
[25] = molecular target: T3, Cyclin-dependent kinase 9; test: Inhibition of CDK9 (unknown origin) at 1 uM relative to control
[26] = molecular target: Phosphatidylinositol 4,5-bisphosphate 3-kinase catalytic subunit alpha isoform (Homo sapiens) (UniProt P42336); test: Inhibition of PI3Kalpha (unknown origin) at <1 uM
[27] = molecular target: Mitogen-activated protein kinase 3 (Homo sapiens) (UniProt P27361); test: Inhibition of ERK1 (unknown origin) at <1 uM using MBP as substrate preincubated for 5 mins followed by substrate addition measured after 60 mins in presence of [gamma33P]ATP by scintillation counter method
[28] = molecular target: Serine/threonine-protein kinase PLK1 (Homo sapiens) (UniProt P53350); test: Inhibition of PLK1 (unknown origin) at 1 uM using alpha-casein as substrate preincubated for 5 mins followed by substrate addition measured after 60 mins in presence of [gamma33P]ATP by scintillation counter method relative to control
[29] = molecular target: Cyclin-C/Cyclin-dependent kinase 19 (Homo sapiens) (UniProt Q9BWU1+P24863); details: 1 uM
Description: Inhibition of kinase tracer-236 binding to GST-tagged CDK19/CyclinC (unknown origin) at 1 uM after 60 mins by TR-FRET assay relative to control

[30] = Intrinsic clearance in human liver microsomes at 1 umol/l after 15 to 30 mins in presence of NADPH by LC-MS/MS analysis; assay type: ADME, microsome; details: read-out: CLH
[31] = molecular target: CDK2/Cyclin A2 (Homo sapiens) (UniProt P24941+P20248); test: Inhibition of CDK2/cyclin A (unknown origin) at 1 uM using histone H1 as substrate preincubated for 5 mins followed by substrate addition measured after 20 mins in presence of [gamma33P]ATP by scintillation counter method relative to control; assay type: protein-complex assay
[32] = molecular target: Glycogen synthase kinase-3 beta (Homo sapiens) (UniProt P49841); test: Inhibition of GSK3beta (unknown origin) at 1 uM using GSK3 substrate peptide preincubated for 5 mins followed by substrate addition measured after 30 mins in presence of [gamma33P]ATP by scintillation counter method relative to control
[33] = molecular target: RAC-alpha serine/threonine-protein kinase (Homo sapiens) (UniProt P31749); test: Inhibition of Akt1 (unknown origin) at <1 uM using AKT1 substrate pretreated for 5 mins followed by substrate addition after 20 mins in presence of [gamma33P]ATP by scintillation counter method
[34] = molecular target: Cyclin-C/Cyclin-dependent kinase 19 (Homo sapiens, UniProt Q9BWU1); test: Inhibition of kinase tracer-236 binding to GST-tagged CDK19/CyclinC (unknown origin) after 60 mins by TR-FRET assay; assay type: protein-complex assay
[35] = molecular target: Focal adhesion kinase 1 (Homo sapiens) (UniProt Q05397); test: Inhibition of FAK (unknown origin) at <1 uM using biotinylated poly[Glu:Tyr] (4:1) as substrate pretreated for 5 mins followed by substrate addition measured after 20 mins by Alphascreen assay
[36] = Aqueous solubility of the compound in DMSO at pH 6.8 by HPLC method; assay type: physicochemical
[37] = molecular target: T2, Cyclin-dependent kinase 8; test: Inhibition of CDK8 in human A549 cells by mass spectrometric method; assay type: cell-based
SET-2 = test: Antitumor activity against human SET2 cells implanted in […] assessed as reduction in tumor volume administered intraperitoneally relative to control; assay type: functional; parameters: scale not given: the % may be the effect or the level left
[38] = molecular target: T2, Cyclin-dependent kinase 8; test: Inhibition of CDK8 (unknown origin) at 1 uM by ADP-Glo assay

Sequence of Cyclin-C/Cyclin-dependent kinase 19 (Q9BWU1 whole entry): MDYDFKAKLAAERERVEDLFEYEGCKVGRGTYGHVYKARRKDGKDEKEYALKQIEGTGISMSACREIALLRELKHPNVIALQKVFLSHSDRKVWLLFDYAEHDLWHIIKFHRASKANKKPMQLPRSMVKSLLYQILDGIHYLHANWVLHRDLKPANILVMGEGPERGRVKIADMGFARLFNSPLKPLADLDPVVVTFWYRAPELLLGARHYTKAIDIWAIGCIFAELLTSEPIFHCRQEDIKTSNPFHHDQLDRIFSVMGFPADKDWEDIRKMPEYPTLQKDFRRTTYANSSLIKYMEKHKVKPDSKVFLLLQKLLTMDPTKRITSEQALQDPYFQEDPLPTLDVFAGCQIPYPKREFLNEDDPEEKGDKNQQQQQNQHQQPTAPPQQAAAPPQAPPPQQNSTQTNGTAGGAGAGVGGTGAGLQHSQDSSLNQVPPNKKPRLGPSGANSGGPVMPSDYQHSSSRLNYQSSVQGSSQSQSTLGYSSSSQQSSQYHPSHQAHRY
Sequence of Cyclin-C/Cyclin-dependent kinase 19 (P24863 whole entry, further chain): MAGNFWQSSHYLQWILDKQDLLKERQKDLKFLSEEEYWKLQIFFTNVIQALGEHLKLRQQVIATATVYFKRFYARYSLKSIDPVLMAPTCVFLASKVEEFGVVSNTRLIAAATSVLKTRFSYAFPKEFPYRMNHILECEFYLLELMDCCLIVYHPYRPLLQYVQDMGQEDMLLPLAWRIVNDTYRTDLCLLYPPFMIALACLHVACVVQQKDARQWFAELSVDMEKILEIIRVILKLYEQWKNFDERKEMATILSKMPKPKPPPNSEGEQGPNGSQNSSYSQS
T2 sequence (P49336 whole entry): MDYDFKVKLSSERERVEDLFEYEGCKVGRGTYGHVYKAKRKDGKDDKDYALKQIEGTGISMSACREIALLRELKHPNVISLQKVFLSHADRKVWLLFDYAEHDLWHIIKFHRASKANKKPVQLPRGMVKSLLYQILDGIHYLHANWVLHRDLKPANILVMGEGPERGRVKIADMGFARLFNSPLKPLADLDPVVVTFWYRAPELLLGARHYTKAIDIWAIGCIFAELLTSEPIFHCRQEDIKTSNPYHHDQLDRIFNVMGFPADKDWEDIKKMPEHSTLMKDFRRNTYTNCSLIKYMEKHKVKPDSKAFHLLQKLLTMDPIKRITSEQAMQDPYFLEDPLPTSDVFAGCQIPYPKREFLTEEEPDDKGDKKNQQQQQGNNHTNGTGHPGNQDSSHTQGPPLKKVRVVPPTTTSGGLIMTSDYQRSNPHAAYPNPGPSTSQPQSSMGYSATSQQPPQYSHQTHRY
T1 sequence (P49336 whole entry): as above
T1 sequence (P24863 whole entry, further chain): as the sequence (P24863 whole entry, further chain) above
T3 sequence (P50750 whole entry): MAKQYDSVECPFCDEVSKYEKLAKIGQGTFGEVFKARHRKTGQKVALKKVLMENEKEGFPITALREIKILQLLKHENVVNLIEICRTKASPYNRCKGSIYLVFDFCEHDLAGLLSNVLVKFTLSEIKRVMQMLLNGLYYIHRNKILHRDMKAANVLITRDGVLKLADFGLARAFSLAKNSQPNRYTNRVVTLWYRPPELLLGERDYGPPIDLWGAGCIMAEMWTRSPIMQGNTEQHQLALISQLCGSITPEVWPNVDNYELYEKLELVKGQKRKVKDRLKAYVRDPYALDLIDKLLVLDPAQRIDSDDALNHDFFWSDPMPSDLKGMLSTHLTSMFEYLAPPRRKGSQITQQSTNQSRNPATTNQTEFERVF
Sequence of Protein kinase C theta type (Homo sapiens) (Q04759 whole entry, looked up): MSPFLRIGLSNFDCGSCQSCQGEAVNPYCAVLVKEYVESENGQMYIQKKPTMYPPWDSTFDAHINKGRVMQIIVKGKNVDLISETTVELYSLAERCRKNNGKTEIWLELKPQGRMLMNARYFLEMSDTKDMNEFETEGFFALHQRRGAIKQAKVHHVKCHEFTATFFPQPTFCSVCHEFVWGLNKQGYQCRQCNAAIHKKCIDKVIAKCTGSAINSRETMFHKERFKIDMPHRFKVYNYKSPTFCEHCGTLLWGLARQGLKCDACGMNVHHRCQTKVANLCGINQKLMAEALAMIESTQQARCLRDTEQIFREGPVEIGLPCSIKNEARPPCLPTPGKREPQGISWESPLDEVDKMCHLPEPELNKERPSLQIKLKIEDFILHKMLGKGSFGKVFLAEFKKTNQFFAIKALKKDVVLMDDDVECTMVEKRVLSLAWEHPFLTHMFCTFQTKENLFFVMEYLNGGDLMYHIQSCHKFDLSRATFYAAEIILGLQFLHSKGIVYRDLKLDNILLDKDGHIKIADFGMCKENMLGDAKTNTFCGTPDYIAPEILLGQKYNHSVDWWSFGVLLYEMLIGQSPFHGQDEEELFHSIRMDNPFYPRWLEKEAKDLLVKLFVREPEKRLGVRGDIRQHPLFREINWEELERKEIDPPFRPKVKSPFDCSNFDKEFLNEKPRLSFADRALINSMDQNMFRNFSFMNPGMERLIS
Sequence of Serine/threonine-protein kinase PLK1 (Homo sapiens) (P53350 whole entry): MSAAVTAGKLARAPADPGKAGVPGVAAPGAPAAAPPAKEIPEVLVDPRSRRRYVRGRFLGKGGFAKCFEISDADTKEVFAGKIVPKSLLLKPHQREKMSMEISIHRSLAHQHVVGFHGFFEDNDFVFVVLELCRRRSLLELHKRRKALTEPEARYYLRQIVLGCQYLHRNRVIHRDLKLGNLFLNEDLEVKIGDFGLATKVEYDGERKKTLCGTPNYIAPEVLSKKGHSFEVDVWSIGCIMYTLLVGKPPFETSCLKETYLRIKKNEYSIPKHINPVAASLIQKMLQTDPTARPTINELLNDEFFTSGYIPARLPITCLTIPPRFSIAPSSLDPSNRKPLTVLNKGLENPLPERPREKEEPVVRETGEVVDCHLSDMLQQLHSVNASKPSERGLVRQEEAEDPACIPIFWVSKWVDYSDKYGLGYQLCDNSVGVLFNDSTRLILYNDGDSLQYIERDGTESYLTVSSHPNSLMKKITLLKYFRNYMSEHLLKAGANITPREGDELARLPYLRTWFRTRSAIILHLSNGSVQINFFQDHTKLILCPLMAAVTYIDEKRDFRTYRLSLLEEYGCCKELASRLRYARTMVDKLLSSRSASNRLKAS
Sequence of Mitogen-activated protein kinase 3 (Homo sapiens) (P27361 whole entry): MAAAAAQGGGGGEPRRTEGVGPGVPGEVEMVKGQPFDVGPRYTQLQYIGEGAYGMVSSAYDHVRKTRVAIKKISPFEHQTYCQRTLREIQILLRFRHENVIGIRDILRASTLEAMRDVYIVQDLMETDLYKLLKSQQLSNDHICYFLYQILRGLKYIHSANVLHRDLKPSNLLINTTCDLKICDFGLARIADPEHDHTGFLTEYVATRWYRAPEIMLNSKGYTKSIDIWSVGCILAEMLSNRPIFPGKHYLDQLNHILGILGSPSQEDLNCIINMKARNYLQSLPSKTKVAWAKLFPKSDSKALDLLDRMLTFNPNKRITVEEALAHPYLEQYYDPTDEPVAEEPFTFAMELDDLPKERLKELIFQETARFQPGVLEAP
Sequence of Proto-oncogene tyrosine-protein kinase Src (Homo sapiens) (P12931 2-536 limits assumed): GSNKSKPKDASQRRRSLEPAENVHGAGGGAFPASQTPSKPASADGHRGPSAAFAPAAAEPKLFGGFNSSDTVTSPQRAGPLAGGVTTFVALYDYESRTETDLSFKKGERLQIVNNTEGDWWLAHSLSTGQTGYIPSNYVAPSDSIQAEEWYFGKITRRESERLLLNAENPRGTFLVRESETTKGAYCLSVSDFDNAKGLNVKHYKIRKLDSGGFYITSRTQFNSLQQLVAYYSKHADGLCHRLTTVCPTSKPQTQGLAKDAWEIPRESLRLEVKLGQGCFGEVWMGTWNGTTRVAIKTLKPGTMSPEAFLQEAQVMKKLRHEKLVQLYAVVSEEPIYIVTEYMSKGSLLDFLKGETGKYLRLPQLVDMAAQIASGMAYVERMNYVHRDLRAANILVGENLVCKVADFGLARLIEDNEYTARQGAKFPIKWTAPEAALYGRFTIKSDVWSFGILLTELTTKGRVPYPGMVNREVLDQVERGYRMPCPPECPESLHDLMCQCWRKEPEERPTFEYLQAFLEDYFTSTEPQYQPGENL
Sequence of MAP kinase-activated protein kinase 2 (Homo sapiens) (P49137 whole entry, looked up): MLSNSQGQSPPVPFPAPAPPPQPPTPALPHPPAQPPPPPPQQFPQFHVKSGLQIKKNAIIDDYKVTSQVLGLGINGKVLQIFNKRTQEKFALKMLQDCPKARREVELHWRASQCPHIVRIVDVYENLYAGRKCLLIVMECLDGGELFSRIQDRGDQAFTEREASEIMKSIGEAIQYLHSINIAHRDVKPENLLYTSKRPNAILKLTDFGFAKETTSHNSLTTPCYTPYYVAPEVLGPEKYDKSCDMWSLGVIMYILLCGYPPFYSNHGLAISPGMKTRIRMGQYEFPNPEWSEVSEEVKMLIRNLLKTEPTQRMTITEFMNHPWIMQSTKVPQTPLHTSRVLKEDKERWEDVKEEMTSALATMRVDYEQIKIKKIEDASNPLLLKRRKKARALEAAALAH
Sequence of Mitogen-activated protein kinase 14 (Homo sapiens) (Q16539 whole entry): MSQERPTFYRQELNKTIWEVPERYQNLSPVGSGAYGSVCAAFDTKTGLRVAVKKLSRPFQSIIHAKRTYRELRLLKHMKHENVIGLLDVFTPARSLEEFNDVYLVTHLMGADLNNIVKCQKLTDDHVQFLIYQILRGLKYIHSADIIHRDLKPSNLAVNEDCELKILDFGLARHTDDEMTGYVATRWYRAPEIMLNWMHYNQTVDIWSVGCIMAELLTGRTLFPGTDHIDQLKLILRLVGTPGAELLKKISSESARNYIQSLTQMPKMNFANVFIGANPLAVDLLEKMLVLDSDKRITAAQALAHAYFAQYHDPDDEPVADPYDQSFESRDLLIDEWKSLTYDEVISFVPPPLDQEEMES

SMILES: c1cc2cc(c1)-c1cnc3ccc(nn13)NCCCCCO2
IC50 (CDK8/Cyclin C [2]): 31 nM
EC50 [3]: 337 nM

SMILES: CC(=O)Nc1ccc(Oc2sc(C(N)=O)c3c2-c2sncc2CC3)cn1
EC50 [4]: 0.4 nM
IC50 (CDK8/Cyclin C [16]): 0.57 nM
solubility [36]: 0.72 µg/mL (≈ 1.86 µM)
microsomal CLint at 1 µM [30]: 61 µL/min/mg
IC50 [34]: 0.57 nM

SMILES: CN(C)[C@H]1C[C@@]23CC[C@@]4(O2)C(=CC[C@]2(C)[C@@H](c5ccc6ccncc6c5)CC[C@H]24)C=C3[C@@H](O)[C@@H]1O
Activity (SET-2): 71%

SMILES: Brc1c(Br)c2c3c(nc(N4CCNCC4)n3CCC2)c1Br
inhibition [38]: 96%

SMILES: NC(=O)c1sc(Oc2ccc(N)nc2)c2c1CCc1cnsc1-2
EC50 [4]: 2.3 nM
IC50 (CDK8/Cyclin C [16]): 0.6 nM
solubility [36]: 4.5 µg/mL (≈ 13.1 µM)
microsomal CLint at 1 µM [30]: 30 µL/min/mg
IC50 [34]: 1.1 nM

SMILES: Cc1ccc(Oc2sc(C(N)=O)c3c2-c2sncc2CC3)cn1
EC50 [4]: 3 nM
IC50 (CDK8/Cyclin C [16]): 0.99 nM
solubility [36]: 23 µg/mL (≈ 67 µM)
microsomal CLint at 1 µM [30]: 75 µL/min/mg
IC50 [34]: 1.3 nM

SMILES: OC[C@H](Nc1cncc(-c2ccc3[nH]ncc3c2)c1)c1ccccc1
IC50 (CDK8/Cyclin C [1]): 0.4 nM

The next lines start with the values.

IC50 (CDK8/Cyclin C [1]): 0.2 nM
SMILES: OC[C@H](Nc1cncc(-c2ccc(O)c(Cl)c2)n1)c1ccccc1

EC50 [4]: 8.9 nM
inhibition [5]: 99%
inhibition [6]: inactive
inhibition [7]: inactive
inhibition [8]: inactive
inhibition [9]: 77%
inhibition [10]: inactive
inhibition [11]: inactive
inhibition [12]: inactive
inhibition (Homo sapiens): 62%
inhibition [13]: 60%
inhibition [14]: inactive
inhibition [15]: inactive
IC50 (CDK8/Cyclin C [16]): 0.65 nM
inhibition [17]: inactive
inhibition [18]: 81%
inhibition [19]: inactive
inhibition [20]: inactive
IC50 [21]: 4 nM
inhibition [22]: inactive
inhibition [23]: 94%
inhibition [24]: 91%
inhibition [25]: 105%
inhibition [26]: inactive
inhibition [27]: inactive
inhibition [28]: 62%
inhibition [29]: 97%
microsomal CLint at 1 µM [30]: 137 µL/min/mg
inhibition [31]: 95%
inhibition [32]: 64%
inhibition [33]: inactive
IC50 [34]: 1.3 to 1.7 nM
inhibition [35]: inactive
SMILES: CSc1sc(C(N)=O)c2c1-c1sncc1CC2

IC50 (CDK8/Cyclin C [1]): 7 nM
SMILES: NC(=O)c1[nH]cc(-c2ccncc2)c1Cl

IC50 [37]: 22 nM
SMILES: NC(=O)C[C@H]1CCc2sc3ncnc(O[C@H]4CC[C@H](N5CCOCC5)CC4)c3c21

EC50 [4]: 1.4 nM
IC50 (CDK8/Cyclin C [16]): 0.93 nM
solubility [36]: 4.1 µg/mL (≈ 11 µM)
microsomal CLint at 1 µM [30]: 19 µL/min/mg
IC50 [34]: 0.97 nM
SMILES: NC(=O)c1ccc(Oc2sc(C(N)=O)c3c2-c2sncc2CC3)cn1

EC50 [4]: 1.5 nM
IC50 (CDK8/Cyclin C [16]): 1.1 nM
solubility [36]: 15 µg/mL (≈ 33.7 µM)
microsomal CLint at 1 µM [30]: 73 µL/min/mg
IC50 [34]: 1.9 nM
SMILES: CCOCCNC(=O)c1ccc(Oc2sc(C(N)=O)c3c2-c2sncc2CC3)cn1

EC50 [4]: 7.4 nM
IC50 (CDK8/Cyclin C [16]): 2.4 nM
solubility [36]: 56 µg/mL (≈ 126 µM)
microsomal CLint at 1 µM [30]: 21 µL/min/mg
IC50 [34]: 2.4 nM
SMILES: CC(C)(O)CNC(=O)c1ccc(Oc2sc(C(N)=O)c3c2-c2sncc2CC3)cn1
